Laboratory results as given in article PMC9354042, “Discovery of BRAF/HDAC Dual Inhibitors Suppressing Proliferation of Human Colorectal Cancer Cells” (Frontiers in Chemistry, 2022).
Like-named read-outs stand apart in the source and are kept apart here.

Columns and labels:
HDAC1 = target: T1, HDAC1 (Homo sapiens, UniProt Q13547); test: HDAC1 fluorescent-based enzymatic activity assay; assay type: biochemical
T1 construct: purchased BPS Bioscience
Method: (§1) The purified recombinant Human HDACs and their corresponding substrates were purchased from BPS Bioscience (BPS Bioscience Inc., United States). The assays were carried out in a 384-well format using the BPS fluorescent–based HDAC activity assay according to the manufacturer’s protocol. In brief, […] of the HDAC reaction mixture was composed of HDAC assay buffer, […] BSA, serial diluted test compounds, appropriate concentration of HDACs, and […] fluorogenic substrate, the mixture was incubated at 37°C for 60 min, and then stopped by the addition of developer containing trypsin and TSA. After 20 min of incubation, the fluorescence was detected at the excitation wavelength of 360 nm and the emission wavelength of 460 nm using the EnVision Multilabel Reader (PerkinElmer Inc., United States). The analytical software, GraphPad Prism 5.0 (GraphPad Software, Inc., United States) was used to generate IC50 value via non-linear regression analysis.

[1] = test system: Ac-histone H3, Ac-α-tubulin, p-ERK in HT-29 cells; test: Western blot analysis of HDAC and RAF pathway in HT-29 cells; assay type: cell-based, human
Method: FIGURE 3 Characterization of dual inhibition of HDAC and RAF pathway. Western blot analysis of 14b in HCT116 cells (A) and in HT-29 cells (B). Cells were treated with 0 μM, 0.12 μM, 0.37 μM, 1.1 μM, 3.3 μM, and 10 μM of drugs and incubated for 6 h. The cell lysis was subjected to Western blot analysis.
The cells were treated with various concentrations of 14b for 6 h. Then, the cells were lysed using 1×SDS sample lysis buffer (CST recommended) with protease and phosphatase inhibitors. Cell lysates were loaded and electrophoresed onto 8–12% SDS-PAGE gel, and then the separated proteins were transferred to a PVDF film. The film was blocked with 5% BSA (Sigma-Aldrich, St. Louis, MO, United States) in a TBS solution containing 0.5% Tween-20 for 4 h at room temperature, then incubated with the corresponding primary antibody (1:1000–1:200) overnight at 4°C. After washing with TBST, HRP-conjugated secondary antibody was incubated for 2 h. The protein signals were visualized by the ECL Western Blotting Detection Kit (Thermo Scientific, Grand Island, NY, United States), and detected with Amersham Imager 600 system (GE, Boston, MA, United States).

HDAC7 = target: T2, HDAC7 (Homo sapiens, UniProt Q8WUI4); test: HDAC7 fluorescent-based enzymatic activity assay; assay type: biochemical; settings: Table 3 isoform panel; read-out: Enzyme inhibition HDAC7 (Class IIA)
T2 construct: purchased BPS Bioscience
T2 sequence (Q8WUI4 1-952): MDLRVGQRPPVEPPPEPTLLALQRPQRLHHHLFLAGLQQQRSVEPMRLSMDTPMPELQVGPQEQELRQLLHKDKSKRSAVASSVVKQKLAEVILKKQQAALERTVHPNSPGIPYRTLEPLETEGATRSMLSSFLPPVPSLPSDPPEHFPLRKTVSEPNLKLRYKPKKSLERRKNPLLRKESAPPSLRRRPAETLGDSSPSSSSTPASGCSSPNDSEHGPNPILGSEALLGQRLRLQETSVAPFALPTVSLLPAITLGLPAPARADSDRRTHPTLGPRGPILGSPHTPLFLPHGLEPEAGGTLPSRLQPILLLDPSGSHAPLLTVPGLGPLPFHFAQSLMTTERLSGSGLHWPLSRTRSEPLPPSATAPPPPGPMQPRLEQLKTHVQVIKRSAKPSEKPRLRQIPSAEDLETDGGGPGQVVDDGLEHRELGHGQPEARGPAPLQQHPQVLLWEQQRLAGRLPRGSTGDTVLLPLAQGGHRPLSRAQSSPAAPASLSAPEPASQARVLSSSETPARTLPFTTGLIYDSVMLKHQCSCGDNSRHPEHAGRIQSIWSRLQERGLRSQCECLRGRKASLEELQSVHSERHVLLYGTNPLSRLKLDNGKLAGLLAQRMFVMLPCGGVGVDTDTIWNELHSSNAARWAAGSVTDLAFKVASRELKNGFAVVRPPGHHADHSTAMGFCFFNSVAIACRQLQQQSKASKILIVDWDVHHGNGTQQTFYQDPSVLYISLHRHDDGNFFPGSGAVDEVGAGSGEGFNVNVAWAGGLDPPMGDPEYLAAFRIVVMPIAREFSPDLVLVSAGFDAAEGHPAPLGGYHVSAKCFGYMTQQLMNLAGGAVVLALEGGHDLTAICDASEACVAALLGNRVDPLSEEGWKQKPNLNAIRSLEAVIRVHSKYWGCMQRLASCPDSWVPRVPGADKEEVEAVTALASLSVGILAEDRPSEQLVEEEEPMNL
Method: as §1

T1 sequence (Q13547 whole entry): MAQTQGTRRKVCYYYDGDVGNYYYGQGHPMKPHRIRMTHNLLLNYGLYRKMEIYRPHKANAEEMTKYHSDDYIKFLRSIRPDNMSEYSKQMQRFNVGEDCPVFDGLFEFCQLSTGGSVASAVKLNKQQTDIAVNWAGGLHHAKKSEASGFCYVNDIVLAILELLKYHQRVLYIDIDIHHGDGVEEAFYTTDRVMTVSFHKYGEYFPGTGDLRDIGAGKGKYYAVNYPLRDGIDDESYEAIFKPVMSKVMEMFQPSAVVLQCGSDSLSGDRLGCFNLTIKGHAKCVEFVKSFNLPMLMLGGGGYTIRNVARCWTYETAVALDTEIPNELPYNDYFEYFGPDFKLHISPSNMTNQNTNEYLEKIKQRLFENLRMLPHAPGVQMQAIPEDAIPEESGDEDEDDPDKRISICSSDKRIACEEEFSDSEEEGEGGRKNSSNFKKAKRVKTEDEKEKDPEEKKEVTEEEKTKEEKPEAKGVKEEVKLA

- IC50 (HDAC1; Table 1, read-out: Enzymatic IC50 HDAC1): 494 nM
- IC50 (HDAC1; Table 3 isoform panel, read-out: Enzyme inhibition HDAC1 (Class I)): 493 nM
- IC50 (HDAC7): 43300 nM
SMILES: CC(C)(C)c1nc(-c2cccc(NS(=O)(=O)c3c(F)cccc3F)c2F)c(-c2ccnc(NCCCCCCC(=O)NO)n2)s1 [14b, 7-{[4-(2-(Tert-Butyl)-4-(3-((2,6-Difluorophenyl)Sulfonamido)-2-Fluorophenyl)Thiazol-5-yl)Pyrimidin-2-yl]Amino}-N-Hydroxyheptanamide]
- expression of BRAF [1]: did not affect the expression of BRAF itself
- acetylated histone H3 (Ac-histone H3) ([1]; 0.12-10 μM, 6 h): upregulated
- acetylated α-tubulin (Ac-α-tubulin) ([1]; 0.12-10 μM, 6 h): upregulated
- phosphorylation of ERK (p-ERK) ([1]; 0.12-10 μM, 6 h): significantly inhibited at the lowest concentration of 0.12 μM
